Laboratory results from patent publication US20110318393A1, “Substituted Pyrazole Compounds” (MIIKANA THERAPEUTICS, INC., priority 2008, published 2011).

Experiments:
recombinant Aurora A = target: T1, recombinant Aurora A (Homo sapiens, UniProt O14965); assay: Aurora A (Aurora 2) inhibition assay, Z'-Lyte kinase assay; assay type: biochemical; details: ATP 10 μM, 1 h; less than or equal to 100 nM
T1 construct: purchased Upstate, Lake Placid, N.Y
T1 sequence (O14965 1-403): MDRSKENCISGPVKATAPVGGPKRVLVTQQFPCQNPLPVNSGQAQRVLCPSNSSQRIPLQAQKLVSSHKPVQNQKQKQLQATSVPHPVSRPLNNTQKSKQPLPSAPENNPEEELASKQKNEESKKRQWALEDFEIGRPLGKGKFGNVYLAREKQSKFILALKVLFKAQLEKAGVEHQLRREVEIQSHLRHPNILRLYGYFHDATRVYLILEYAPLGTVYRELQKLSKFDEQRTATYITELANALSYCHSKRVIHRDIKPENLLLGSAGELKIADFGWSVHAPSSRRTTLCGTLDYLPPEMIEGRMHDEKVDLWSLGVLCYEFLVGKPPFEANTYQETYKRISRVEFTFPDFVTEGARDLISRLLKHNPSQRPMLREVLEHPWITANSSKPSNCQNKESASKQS
Description: Compounds were tested for their potency against recombinant Aurora A (Upstate, Lake Placid, N.Y.) using the PanVera Z′-Lyte kinase assay kit-Ser/Thr 1 peptide (Invitrogen, Carlsbad, Calif.). Assays were carried out in kinase assay buffer (50 mM HEPES, pH 7.5, 10 mM MgCl2, 5 mM EGTA, 0.05% Brij-35, 2 mM DTT). Test compounds were initially dissolved in DMSO at 100× the highest tested concentration, then serially diluted to 4× test concentrations in kinase assay buffer. Next, Aurora A (final concentration 200-500 ng/mL), Z′-Lyte Ser/Thr 1 peptide (final concentration 2 μM) and ATP (final concentration 10 μM) were added according to the manufacturer's instructions. Assays were carried out in half-area 96-well white polystyrene assay plates (Corning, Corning, N.Y.) in a final volume of 20 μl. The reaction was allowed to proceed for 1 h at room temperature in the dark, at which point the development reagent and stop reagent were added according to the manufacturer's instructions. Coumarin (Ex. 400 nm, Em. 465 nm) and fluorescein (Ex. 400 nm, Em. 565 nm) fluorescence values were measured on a SpectraFluor Plus plate reader (Tecan, Durham, N.C.). The emission ratio (coumarin/fluorescein) was determined and used to calculate the percent phosphorylation for each well. Wells containing substrate but no kinase and wells containing a phosphopeptide control were used to set 0% and 100% phosphorylation values, respectively. Typically 20-40% of the substrate was phosphorylated in wells without inhibitor. Dose-response curves of relative Aurora A activity vs. inhibitor concentration were plotted with Grafit (Erithacus Software, Horley, Surrey, UK).

[1] = target: T2, N-terminal GST-tagged recombinant human Flt3, residues 564-end (Homo sapiens, UniProt P36888); assay: Flt3 kinase inhibition assay (33P-ATP filter assay); assay type: biochemical; details: 40 minutes, room temperature; less than or equal to 100 nM
T2 construct: recombinant human Flt3, residues 564-end; GST (N); purchased Upstate USA Inc, Charlottesville, Va
T2 sequence (P36888 564-993 limits assumed): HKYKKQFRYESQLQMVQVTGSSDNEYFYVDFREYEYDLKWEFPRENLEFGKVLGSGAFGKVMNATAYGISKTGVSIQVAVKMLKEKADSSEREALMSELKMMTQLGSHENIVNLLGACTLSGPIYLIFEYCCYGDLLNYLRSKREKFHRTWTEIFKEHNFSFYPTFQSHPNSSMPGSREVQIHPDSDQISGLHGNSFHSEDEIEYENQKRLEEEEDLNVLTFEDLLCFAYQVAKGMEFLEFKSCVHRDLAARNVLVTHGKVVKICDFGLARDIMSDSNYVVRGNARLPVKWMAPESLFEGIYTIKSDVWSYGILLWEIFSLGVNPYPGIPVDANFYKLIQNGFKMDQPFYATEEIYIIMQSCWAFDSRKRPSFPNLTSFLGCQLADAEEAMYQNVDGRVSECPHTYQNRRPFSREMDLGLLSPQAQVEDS
Description: Compounds were assayed for Flt3 kinase inhibitory activity using N-terminal GST-tagged recombinant human Flt3, residues 564-end (Upstate USA Inc, 706 Forest Street, Charlottesville, Va.). Serial dilutions of compound were assayed in a final reaction volume of 25 μL by incubating a solution of the above Flt3 kinase (5-10 mU), 8 mM MOPS (3-(N-morpholino)propanesulfonic acid) pH 7.0, 0.2 mM EDTA (ethylenediamine tetracetic acid), 50 μM amino acid sequence EAIYAAPFAKKK (Upstate USA Inc, 706 Forest Street, Charlottesville, Va.), and 10 mM magnesium acetate and [γ-^33P-ATP] (specific activity of about 500 cpm/pmol, concentration as required). The reaction was initiated by the addition of the magnesium acetate and [γ-^33P-ATP] mixture. After incubation for 40 minutes at room temperature, the reaction was stopped by the addition of 5 μL of a 3% phosphoric acid solution. A 10 μL aliquote of the reaction was then spotted onto a P30 filtermat (PerkinElmer, Wellesley, Mass.) and washed three times for five minutes in 75 mM phosphoric acid and once in methanol prior to drying and scintillation counting. Inhibition of Flt3 activity was determined by comparison to assays that contained no inhibitor.

Row | SMILES | IC50 (recombinant Aurora A) | IC50 [1]
1 | Cc1cc(Nc2cc(N3CCC(N4CCCCC4)CC3)nc(/C=C/c3ccccc3)n2)n[nH]1 [Compound 5, (E)-6-(1,4′-bipiperidin-1′-yl)-N-(5-methyl-1H-pyrazol-3-yl)-2-styrylpyrimidin-4-amine] | ≤ 100 nM | ≤ 100 nM
2 | Cc1cc(Nc2cc(N3CCN(c4ccncc4)CC3)nc(/C=C/c3ccccc3)n2)n[nH]1 [Compound 22, (E)-N-(5-methyl-1H-pyrazol-3-yl)-6-(4-(pyridin-4-yl)piperazin-1-yl)-2-styrylpyrimidin-4-amine] | ≤ 100 nM | ≤ 100 nM
